The values that follow come from ChEMBL document CHEMBL4265967, “Design, synthesis, and evaluation of carboxyl-modified oseltamivir derivatives with improved lipophilicity as neuraminidase inhibitors” (Bioorg Med Chem Lett, 2018).

Data set [1] has as its target Neuraminidase (Influenza A virus) (UniProt B4URF0). Conditions: A/Anhui/2005(H5N1), at 1 µM.
Data set [2] has the same target. Conditions: A/Anhui/2005(H5N1), at 10 µM.
For data set [3], the target named is Neuraminidase (Influenza A virus, UniProt B4URF0). More on the design: species or system A/Anhui/2005(H5N1).
Neuraminidase, sequence (B4URF0 whole entry): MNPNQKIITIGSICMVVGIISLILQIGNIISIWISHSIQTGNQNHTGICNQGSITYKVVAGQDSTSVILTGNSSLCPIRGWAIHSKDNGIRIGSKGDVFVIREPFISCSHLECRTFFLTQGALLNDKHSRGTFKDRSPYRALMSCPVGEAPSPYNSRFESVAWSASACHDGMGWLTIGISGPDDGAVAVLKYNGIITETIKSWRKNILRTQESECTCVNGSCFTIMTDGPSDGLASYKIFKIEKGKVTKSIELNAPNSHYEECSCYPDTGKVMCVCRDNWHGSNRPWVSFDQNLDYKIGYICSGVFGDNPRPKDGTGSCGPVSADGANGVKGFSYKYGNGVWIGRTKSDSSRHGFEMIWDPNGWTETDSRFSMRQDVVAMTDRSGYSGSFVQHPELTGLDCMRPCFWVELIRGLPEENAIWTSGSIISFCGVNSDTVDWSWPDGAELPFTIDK
Data set [4] can be described thus: in vitro. The conditions noted are these: human, liver microsomes. (In general: Liver microsomes are vesicles of endoplasmic reticulum, rich in cytochrome P450 enzymes.)
Data set [5] can be described thus: in vitro. The conditions noted are these: human, liver microsomes. This is another data set of the same source.
A short description of data set [6]: in vitro. The conditions noted are these: human, liver microsomes. The source holds these as a separate data set.
Data set [7] is described as follows: in vitro. Conditions: human, liver microsomes. The source holds these as a separate data set.
A short description of data set [8]: in vitro. The conditions noted are these: human, liver microsomes. This is another data set of the same source.
A short description of data set [9]: in vitro. The conditions noted are these: human, liver microsomes. This is another data set of the same source.
The nature of data set [10]: in vitro. Conditions: human, liver microsomes. The source holds these as a separate data set.
Data set [11] can be described thus: in vitro. The conditions noted are these: human, liver microsomes. This is another data set of the same source.
Data set [12] in a line: Octanol-phosphate buffered saline partition coefficient, log D of compound at pH 6.8 at 1 mg after 24 hrs by HPLC analysis. It is filed as physicochemical.
Data set [13] is described as follows: Octanol-phosphate buffered saline partition coefficient, log D of compound at pH 7.6 at 1 mg after 24 hrs by HPLC analysis. It is filed as physicochemical.
The nature of data set [14]: Octanol-phosphate buffered saline partition coefficient, log D of compound at pH 7 at 1 mg after 24 hrs by HPLC analysis. It is filed as physicochemical.
The nature of data set [15]: Octanol-phosphate buffered saline partition coefficient, log D of compound at pH 7.4 at 1 mg after 24 hrs by HPLC analysis. It is filed as physicochemical.

Neuraminidase (Influenza A virus), sequence (B4URF0 as listed by the source): as the sequence (B4URF0 whole entry) above

Take `CCC(CC)O[C@@H]1C=C(C(=O)N[C@H](CC(C)C)C(=O)O)C[C@H](N)[C@H]1NC(C)=O`: the inhibition (as a rule, the drop in the measured response relative to a control, in per cent) worked out at 38.9% in data set [1] and 84.4% in [2]. Also, the IC50 (in general, the point on the concentration scale where inhibition reaches its midpoint) in [3] was determined as 6.55 µM.

Consider `CCC(CC)O[C@@H]1C=C(C(=O)NCCCc2ccccc2)C[C@H](N)[C@H]1NC(C)=O`, for which the inhibition in data set [1] was found to be 13.5%; in [2], 19.3%.

On to `CCC(CC)O[C@@H]1C=C(C(=O)N[C@@H](CC(=O)OC)c2ccccc2)C[C@H](N)[C@H]1NC(C)=O`, for which the figures for the inhibition in data set [1] and in data set [2] were 26.5% and 56.7%, respectively.

Regarding `CCC(CC)O[C@@H]1C=C(C(=O)N[C@H](Cc2ccccc2)C(=O)OC)C[C@H](N)[C@H]1NC(C)=O`, the results for the inhibition in [1] and in data set [2] were 24.9% and 63.2%, respectively.

Take `O=C(O)Cc1ccccc1Nc1c(Cl)cccc1Cl` [DICLOFENAC]: the half-life (commonly how long it takes for the measured level to halve) at 1 µM in data set [4] is 11.6 min. Also, in [5], the intrinsic metabolic clearance (CLint scaled) – broadly, the rate of metabolic loss divided by the concentration – at 1 µM worked out at 108 mL/min/kg and the intrinsic clearance (microsomal CLint) (usually the capacity of the preparation to metabolise the compound, expressed as a volume cleared per time) at 1 µM was determined as 120 µL/min/mg.

On to `CCC(CC)O[C@@H]1C=C(C(=O)NC2CC2)C[C@H](N)[C@H]1NC(C)=O`, for which the inhibition came to 5% in [1] and 55.3% in data set [2].

`CCC(CC)O[C@@H]1C=C(C(=O)N[C@H](CC(C)C)C(=O)OC)C[C@H](N)[C@H]1NC(C)=O`: the values for the inhibition in data set [1] and in [2] were 13.1% and 41.7%, respectively.

For the molecule `CCC(CC)O[C@@H]1C=C(C(=O)NCc2ccc(Cl)c(Cl)c2)C[C@H](N)[C@H]1NC(C)=O`, the inhibition in data set [2] was found to be 21.4%.

In [2], `CCC(CC)O[C@@H]1C=C(C(=O)N[C@@H](C(=O)O)c2ccccc2)C[C@H](N)[C@H]1NC(C)=O` returned an inhibition of 8.3%.

For the molecule `CCC(CC)O[C@@H]1C=C(C(=O)N[C@H](Cc2ccccc2)C(=O)O)C[C@H](N)[C@H]1NC(C)=O`, the inhibition in data set [1] came out at 21.1%; in [2], 80.4%. In data set [3], this molecule yielded a half-inhibitory concentration (IC50) of 21.9 µM.

On to `C[C@]12CC[C@H]3[C@@H](CCC4=CC(=O)CC[C@@]43C)[C@@H]1CC[C@@H]2O` [TESTOSTERONE], for which the share remaining at 1 h, 1 µM in data set [6] was determined as 5.2%; in data set [8], 99.3%. The fraction remaining at 10 min, 1 µM in [7] came out at 58.9%. Moreover, the fraction remaining at 20 min, 1 µM in [9] turned out to be 37.8%. For the same molecule, the amount remaining at 0.5 h, 1 µM in data set [10] is 21.5%. The share remaining at 5 min, 1 µM in [11] amounted to 64.8%.

Consider `CCC(CC)O[C@@H]1C=C(C(=O)NCCCCc2ccccc2)C[C@H](N)[C@H]1NC(C)=O`, for which the inhibition in data set [1] is 24.7%; in data set [2] it was 29.6%.

Take `CCC(C)C[C@@H](NC(=O)C1=C[C@@H](OC(CC)CC)[C@H](NC(C)=O)[C@@H](N)C1)C(=O)OC` (some centres not stated): the figures for the inhibition in data set [1] and in data set [2] were 23.6% and 50.5%, respectively.

`CCC(CC)O[C@@H]1C=C(C(=O)N[C@H](C)C(=O)O)C[C@H](N)[C@H]1NC(C)=O`: the inhibition came to 27.8% in data set [1] and 81.1% in data set [2]. The molecule further returned an IC50 in data set [3] of 24.4 µM.

The molecule `CCCC[C@@H](NC(=O)C1=C[C@@H](OC(CC)CC)[C@H](NC(C)=O)[C@@H](N)C1)C(=O)O` yielded an inhibition in data set [2] of 85.5%. Further, half-maximal inhibition in data set [3] (IC50) required 30.7 µM.

`CCC(CC)O[C@@H]1C=C(C(=O)N[C@@H](C(=O)O)C2CC2)C[C@H](N)[C@H]1NC(C)=O`: the inhibition in [2] was 85.7%. In [3], this molecule had an IC50 of 46.4 µM.

In turn, `CCC(CC)O[C@@H]1C=C(C(=O)N[C@@H](C(=O)O)C(C)(C)C)C[C@H](N)[C@H]1NC(C)=O` came in with a half-life at 1 µM in [4] above 145 min. The share remaining at 1 h, 1 µM in data set [6] is 84.1%; in data set [8], 92.9%. Moreover, the amount remaining at 10 min, 1 µM in [7] was 87.3%. The inhibition in data set [1] turned out to be 58.3%; in data set [2], 91%. This molecule displayed an intrinsic clearance (CLint scaled) at 1 µM in data set [5] below 8.6 mL/min/kg. Also, the microsomal CLint at 1 µM in [5] was below 9.6 µL/min/mg. The pH-dependent lipophilicity (logD) (as a rule, the decadic logarithm of the distribution of all forms, ionised or not, between an organic phase and buffer at a given pH) at 24 h in data set [12] was -0.0458; in data set [13], -0.209; in data set [14], -0.167; in data set [15], -0.116. In data set [3], this molecule showed an IC50 of 1.3 µM. The amount remaining at 20 min, 1 µM in data set [9] was determined as 106%. Moreover, in data set [10], the fraction remaining at 0.5 h, 1 µM turned out to be 95.5%. Also, in [11], the fraction remaining at 5 min, 1 µM was 111%.

For `CCC(CC)O[C@@H]1C=C(C(=O)N[C@@H](C(=O)O)C(C)C)C[C@H](N)[C@H]1NC(C)=O`, the results for the inhibition in data set [1] and in [2] were 57.6% and 91.4%, respectively. Besides, the IC50 in data set [3] amounted to 4.18 µM.
